We go through 30 compounds from patent publication US8524718B2, “Heteroaromatic derivatives and their use as positive allosteric modulators of metabotropic glutamate receptors” (Addex Pharma S.A., priority 2007, dated 2013).

Take `Cc1n[nH]cc1-c1csc(Nc2cc(F)ccc2F)n1` [Compound 1-17, N-(2,5-Difluorophenyl)-4-(3-methyl-1H-pyrazol-4-yl)thiazol-2-amine]: the melting point was 196 to 199 °C.
The result for `Cc1sc(Nc2cnccn2)nc1-c1cn[nH]c1` [Compound 1-39, 5-Methyl-N-(pyrazin-2-yl)-4-(1H-pyrazol-4-yl)thiazol-2-amine] reads 252 °C; that for `Cc1sc(NC2CCCCC2)nc1-c1cn[nH]c1` [Compound 1-29, N-Cyclohexyl-5-methyl-4-(1H-pyrazol-4-yl)thiazol-2-amine], 205 to 207 °C; that for `OCc1sc(Nc2ccccn2)nc1-c1cn[nH]c1` [Compound 1-57, (4-(1H-Pyrazol-4-yl)-2-(pyridin-2-ylamino)thiazol-5-yl)methanol], 250 °C (dec.).
The result for `Cc1n[nH]cc1-c1nsc(Nc2ncc(F)cc2F)n1` [Compound 1-44, N-(3,5-Difluoropyridin-2-yl)-3-(3-methyl-1H-pyrazol-4-yl)-1,2,4-thiadiazol-5-amine] reads > 300 °C; that for `Cc1sc(Nc2ccccn2)nc1-c1cnn(S(C)(=O)=O)c1` [Compound 1-45, 5-Methyl-4-(1-(methylsulfonyl)-1H-pyrazol-4-yl)-N-(pyridin-2-yl)thiazol-2-amine], 193 °C; that for `Cc1sc(Nc2cccc(F)n2)nc1-c1cnn(C(N)=O)c1`, 230 °C (dec.).
To `Cc1sc(Nc2ccccn2)nc1-c1cnn(C(=O)NC(C)C)c1` [Compound 1-50, N-Isopropyl-4-(5-methyl-2-(pyridin-2-ylamino)thiazol-4-yl)-1H-pyrazole-1-carboxamide] belongs 297 to 298 °C; to `CCc1sc(Nc2ccccn2)nc1-c1cn[nH]c1` [Compound 1-22, 5-Ethyl-4-(1H-pyrazol-4-yl)-N-(pyridin-2-yl)thiazol-2-amine], 243 to 246 °C.
In the case of `Cc1cccc(Nc2nc(-c3c[nH]nc3C)ns2)n1` [Compound 1-40, 3-(3-Methyl-1H-pyrazol-4-yl)-N-(6-methylpyridin-2-yl)-1,2,4-thiadiazol-5-amine], the melting point was > 300 °C.
To `Cc1sc(NC2CCCC2)nc1-c1cn[nH]c1` [Compound 1-37, N-Cyclopentyl-5-methyl-4-(1H-pyrazol-4-yl)thiazol-2-amine] belongs 197 °C; to `Fc1ccc(F)c(Nc2cccc(-c3cn[nH]c3)n2)c1` [Compound 2-1, N-(2,5-Difluorophenyl)-6-(1H-pyrazol-4-yl)pyridin-2-amine], 198 to 199 °C; to `Cc1n[nH]cc1-c1nsc(Nc2cccc(Cl)n2)n1` [Compound 1-41, N-(6-Chloropyridin-2-yl)-3-(3-methyl-1H-pyrazol-4-yl)-1,2,4-thiadiazol-5-amine], 285 °C (dec.).
The result for `CCc1cccc(Nc2nc(-c3cn[nH]c3)c(C)s2)n1` [Compound 1-48, N-(6-Ethylpyridin-2-yl)-5-methyl-4-(1H-pyrazol-4-yl)thiazol-2-amine] reads 276 to 278 °C; that for `Cc1cccc(Nc2nc(-c3cnn(C(=O)C(C)C)c3)c(C)s2)n1` [Compound 1-30, 2-Methyl-1-(4-(5-methyl-2-(6-methylpyridin-2-ylamino)thiazol-4-yl)-1H-pyrazol-1-yl)propan-1-one], 159 to 160 °C.
To `CC(C)C(=O)n1cc(-c2nsc(Nc3ccccn3)n2)cn1` [Compound 1-36, 2-Methyl-1-(4-(5-(pyridin-2-ylamino)-1,2,4-thiadiazol-3-yl)-1H-pyrazol-1-yl)propan-1-one] belongs 248 to 254 °C; to `c1ccc(Nc2nc(-c3cn[nH]c3)ns2)nc1` [Compound 1-35, 3-(1H-Pyrazol-4-yl)-N-(pyridin-2-yl)-1,2,4-thiadiazol-5-amine], 300 °C (dec.); to `Cc1sc(Nc2ccccn2)nc1-c1cnn(C(=O)C(C)C)c1` [Compound 1-26, 2-Methyl-1-(4-(5-methyl-2-(pyridin-2-ylamino)thiazol-4-yl)-1H-pyrazol-1-yl)propan-1-one], 168 °C.
Take `Cc1cccc(Nc2nc(-c3cn[nH]c3)c(Cl)s2)n1` [Compound 1-52, 5-Chloro-N-(6-methylpyridin-2-yl)-4-(1H-pyrazol-4-yl)thiazol-2-amine]: the melting point was in the range of 278 to 282 °C.
`Cc1ccnc(Nc2nc(-c3c[nH]nc3C)cs2)c1` [Compound 1-21, 4-(3-Methyl-1H-pyrazol-4-yl)-N-(4-methylpyridin-2-yl)thiazol-2-amine] came in with a melting point of 276 to 278 °C.
As to `Cc1sc(Nc2ccccn2)nc1-c1cnn(C(=O)C2CCCCC2)c1` [Compound 1-28, Cyclohexyl(4-(5-methyl-2-(pyridin-2-ylamino)thiazol-4-yl)-1H-pyrazol-1-yl)methanone], the melting point was 140 to 144 °C.
To `Cc1sc(Nc2ccc(F)cn2)nc1-c1cn[nH]c1` [Compound 1-24, N-(5-Fluoropyridin-2-yl)-5-methyl-4-(1H-pyrazol-4-yl)thiazol-2-amine] belongs 320 °C; to `Cc1cccc(Nc2nc(-c3cn[nH]c3)ns2)n1` [Compound 1-38, N-(6-Methylpyridin-2-yl)-3-(1H-pyrazol-4-yl)-1,2,4-thiadiazol-5-amine], 276 °C; to `Clc1cccc(Nc2nc(-c3cn[nH]c3)ns2)n1` [Compound 1-42, N-(6-Chloropyridin-2-yl)-3-(1H-pyrazol-4-yl)-1,2,4-thiadiazol-5-amine], 317 to 319 °C.
To `Cc1ccnc(Nc2nc(-c3cn[nH]c3)c(C)s2)c1` [Compound 1-19, 5-Methyl-N-(4-methylpyridin-2-yl)-4-(1H-pyrazol-4-yl)thiazol-2-amine] belongs 274 °C.
As to `Cc1sc(Nc2ccccn2)nc1-c1cnn(C(=O)NC2CC2)c1` [Compound 1-59, N-Cyclopropyl-4-(5-methyl-2-(pyridin-2-ylamino)thiazol-4-yl)-1H-pyrazole-1-carboxamide], the melting point is 270 °C (dec.).
To `Cc1sc(Nc2ncc(F)cc2F)nc1-c1cn[nH]c1` [Compound 1-20, N-(3,5-Difluoropyridin-2-yl)-5-methyl-4-(1H-pyrazol-4-yl)thiazol-2-amine] belongs > 300 °C.
To `Cc1sc(Nc2ccccn2)nc1-c1cnn(C(=O)N2CCCCC2)c1` [Compound 1-34, (4-(5-Methyl-2-(pyridin-2-ylamino)thiazol-4-yl)-1H-pyrazol-1-yl)(piperidin-1-yl)methanone] belongs 137 to 138 °C; to `Cc1n[nH]cc1-c1nc(Nc2ccccn2)sc1C` [Compound 1-15, 5-Methyl-4-(3-methyl-1H-pyrazol-4-yl)-N-(pyridin-2-yl)thiazol-2-amine], 218 °C.
The result for `Cc1cccc(Nc2nc(-c3c[nH]nc3C)cs2)n1` [Compound 1-23, 4-(3-Methyl-1H-pyrazol-4-yl)-N-(6-methylpyridin-2-yl)thiazol-2-amine] reads 295 °C (dec.).
